Reference: patent US20080175837A1, “DPP4 INHIBITOR AND PHARMACEUTICAL USE THEREOF” (AJINOMOTO CO., INC, priority 2005, published 2008)
Residues, ends and D or L forms follow the SMILES beside them.

Tests used:
[1] = target: T1, recombinant human dipeptidyl peptidase IV (rhDpp4) (Homo sapiens, UniProt P27487); test: Inhibiting activity against rhDpp4 (G-P-pNA cleavage, absorbance at 405 nm); format: biochemical
T1 construct: purchased R&D Systems 1180-SE
Experimental: The inhibiting activity of each test compound was determined against the cleaving activity of GLY-PRO-p-nitroanihde (G-P-pNA, by Sigma, #G-0513), which is a synthetic substrate of recombinant human dipeptidyl peptidase IV (rhDpp4, by R&D Systems, #1180-SE). G-P-pNA was cleaved between PRO and pNA by rhDpp4. Since pNA is absorbed at 405 nm, the value thereof was measured to determine the cleavage amount.
The reaction solution (25 mM Tris (pH8.0), 100 uM G-P-pNA, 0.25 ng/ul rhDPP4) was prepared and added to the test compound so that the final concentration of the test compound became 2 mM (1% DMSO concentration). The reaction solution was kept in 37° C. for 30 minutes. After that, the absorbance at 405 nm was measured at once by a spectrophotometer. The reaction was conducted in 200 ul scale with a 96-well microplate.
At the same time, the absorbance at 405 nm of each 100, 33, 11, 3.7, 1.2, 0.41, and 0.14 uM pNA solution was measured to obtain the relational formula of pNA concentration and absorbance, and the pNA amount (the substrate cleavage amount) in each reaction solution was calculated.
As for the inhibition rate, 3 to 4 wells without the test compound were prepared in the same plate. Then, the inhibition rate was calculated and shown in percentage by using the following formula from the proportion of the substrate cleavage amount (B) of the well to which each test compound was added to the average amount (A) of the substrate cleavage amount of the well without the test compound.
Inhibition rate (%)=100×(1−(B)/(A))

[2] = test system: rat hepatic cells; test: Measurement of autophagy (proteolysis, valine release) by using rat hepatic cells; format: cell-based
Experimental: Male Wistar rats of 140 to 180 g which were freely fed were used to prepare rat hepatic cells by the collagenase perfusion method (Seglen, P.O. Preparation of isolated liver cells. (1976) In Methods in Cell Biology eds. D. M. Prescott, 13, 29-83. Academic: New York/London). By this method, 2 to 2.5×10^8 cells of the hepatic cells per one individual's […] could be prepared.
The protein decomposition (autophagy) of the prepared hepatic cells was determined by the method of Venerando, et al. Namely, the hepatic cells were put in a 10 mL flask with 3.5 mL of KRB buffer (24 mM bicarbonate, 6 mM glucose) to prepare a cell suspension (1 to 1.2×10^6 cells/mL). The solution was kept and left in 37° C. for 45 minutes in a carbon dioxide incubator. Then, various chemical treatments were conducted under the existence of 20 uM cycloheximide in order to stop the protein synthesis, and the solution was kept at 37° C. for […]. At each 31 minutes and 42 minutes, 0.35 mL of the hepatic cell suspension was taken out, and a perchloric acid cooled with ice (final concentration 6%) was added to the latter and preserved at −20° C. Valine in the supernatant of the acid-soluble fraction was measured, and valine release for 11 minutes was determined. […]

[3] = target: T2, p103 (rat dipeptidyl peptidase IV, DPP4) (Rattus norvegicus, UniProt P14740); test: Bond of Leu8-MAP to leucine binding protein p103 on the hepatocyte membrane, competition by free amino acids; conditions: excess free amino acid
T2 construct: from tissue; host or cells: rat hepatocyte membrane
T2 sequence (P14740 whole entry): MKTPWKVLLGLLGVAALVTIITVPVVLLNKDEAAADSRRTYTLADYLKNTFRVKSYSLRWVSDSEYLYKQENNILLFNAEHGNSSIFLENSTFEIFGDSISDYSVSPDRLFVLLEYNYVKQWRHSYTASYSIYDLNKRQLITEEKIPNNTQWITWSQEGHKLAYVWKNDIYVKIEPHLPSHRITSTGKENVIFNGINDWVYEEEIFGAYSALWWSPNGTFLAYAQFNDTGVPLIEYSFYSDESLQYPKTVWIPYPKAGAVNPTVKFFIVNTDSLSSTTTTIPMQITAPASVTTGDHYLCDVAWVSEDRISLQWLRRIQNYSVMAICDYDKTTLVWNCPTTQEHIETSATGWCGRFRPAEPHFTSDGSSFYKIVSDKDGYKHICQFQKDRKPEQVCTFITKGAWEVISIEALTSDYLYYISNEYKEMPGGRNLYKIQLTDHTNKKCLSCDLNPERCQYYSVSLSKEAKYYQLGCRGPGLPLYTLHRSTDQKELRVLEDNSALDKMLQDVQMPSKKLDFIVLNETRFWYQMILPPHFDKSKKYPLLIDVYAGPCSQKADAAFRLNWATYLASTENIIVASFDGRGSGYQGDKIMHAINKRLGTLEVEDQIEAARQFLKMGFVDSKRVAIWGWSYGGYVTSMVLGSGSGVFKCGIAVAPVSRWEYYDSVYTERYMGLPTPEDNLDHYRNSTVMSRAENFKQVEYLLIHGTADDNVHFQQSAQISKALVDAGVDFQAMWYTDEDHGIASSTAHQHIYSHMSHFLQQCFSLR
From the text: In order to solve the above problems, the inventors attempted to identify leucine binding protein that exists on the membrane of rat hepatic cells by using a membrane-impermeable leucine derivative (Leu8-MAP). As a result of the thorough search, they found a molecular weight of 103-kilodalton leucine-specific binding protein (p103) on the hepatocyte membrane. Though the bond of Leu8-MAP to p103 was inhibited by excess free leucine, it was not inhibited by isoleucine or valine. Therefore, p103 was protein that selectively bonds to leucine. Further, as a result of various examinations on the condition for purifying p103 from the hepatocyte membrane, they succeeded in isolating the above protein by purification and detected it as a single band protein by SDS-PAGE electrophoresis. This band was cleaved from the gel, and peptide fragmentation was conducted thereto by the in-gel reduction/alkylation and the enzyme digestion. Then, the mass spectrometry was conducted by providing the fragment with the equipment wherein a nanoHPLC system (Ultimate: Nippon Dionex K.K.) was connected to an ion trap mass spectrometer (LCQ: Thermo Electron Co., Ltd.). The obtained data was identified with a database search system (Mascot: Matrix Science, Ltd.). MSDB (Jan. 6, 2004 ver. by Matrix Science, Ltd.) was used as the sequence database for search. As a result, rat dipeptidyl peptidase IV (DPP4: EC 3.4.14.5) could be identified at a high score.

T1 sequence (P27487 whole entry): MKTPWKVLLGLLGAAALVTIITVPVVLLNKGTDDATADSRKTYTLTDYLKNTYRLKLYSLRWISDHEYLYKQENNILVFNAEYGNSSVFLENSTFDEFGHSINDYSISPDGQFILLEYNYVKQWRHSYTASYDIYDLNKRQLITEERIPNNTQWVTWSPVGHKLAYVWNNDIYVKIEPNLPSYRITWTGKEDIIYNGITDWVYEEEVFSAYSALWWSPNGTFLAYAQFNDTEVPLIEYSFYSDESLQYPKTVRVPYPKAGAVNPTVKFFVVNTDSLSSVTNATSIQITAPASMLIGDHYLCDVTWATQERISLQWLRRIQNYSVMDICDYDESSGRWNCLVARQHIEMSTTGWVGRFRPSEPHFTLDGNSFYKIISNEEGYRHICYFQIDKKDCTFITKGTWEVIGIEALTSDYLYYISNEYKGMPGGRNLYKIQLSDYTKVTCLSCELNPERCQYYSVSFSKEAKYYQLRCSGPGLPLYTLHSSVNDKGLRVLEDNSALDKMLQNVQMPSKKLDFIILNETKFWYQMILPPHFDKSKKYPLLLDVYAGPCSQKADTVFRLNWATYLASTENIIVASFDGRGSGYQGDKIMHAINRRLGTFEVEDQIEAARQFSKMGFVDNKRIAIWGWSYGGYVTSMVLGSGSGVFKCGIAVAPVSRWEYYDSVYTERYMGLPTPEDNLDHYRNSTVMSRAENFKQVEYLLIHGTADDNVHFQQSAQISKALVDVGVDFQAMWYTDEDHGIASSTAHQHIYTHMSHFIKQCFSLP

Row | Dpp4 inhibiting activity among 20 kinds of amino acids (FIG. 2, substrate cleavage rate), in words [1] | inhibition of the bond of Leu8-MAP to p103, in words [3] | SMILES | further results
1 | has the Dpp4 inhibiting activity | inhibited | CC(C)C[C@H](N)C(=O)O [Leucine, L-leucine] | concentration-dependent Dpp4 inhibiting activity (FIG. 1), in words ([1]; FIG. 1): inhibits Dpp4; effect on autophagy induced by amino acid starvation, in words [2]: strongly inhibits autophagy; Inhibition of proteolysis (%) ([2]; starvation induced proteolysis, 20 uM cycloheximide, valine release for 11 minutes): 27.9%
2 | has the Dpp4 inhibiting activity |  | CSCC[C@H](N)C(=O)O [Met, L-methionine] | 
3 |  |  | CC(C)C[C@H](NC(=O)[C@@H](N)CCCCN)C(=O)O [R1=L-Lys, R2=OH, Lys-Leu] (H-Lys-Leu-OH) | Inhibition rate (%) ([1]; test compound 2 mM, 100 uM G-P-pNA, 0.25 ng/ul rhDPP4, 37° C. for 30 minutes): 38.4%
4 |  | not inhibited | CC[C@H](C)[C@H](N)C(=O)O [isoleucine] | 
5 |  | not inhibited | CC(C)[C@H](N)C(=O)O [valine] | 
